Numbering of substitutions follows the chain as printed.
Key:
[1] = molecular target: T1, rat muscarinic receptor subtype 1 (M1) (Rattus norvegicus, UniProt P08482); test: Calcium mobilization assay in rM1-CHO cells, PAM activity with EC20 acetylcholine; type: cell-based; conditions: for EC50: read-out: rM1 pEC50 ± SEM (converted)
T1 construct: expressed in transfected cells
T1 sequence (P08482 1-460): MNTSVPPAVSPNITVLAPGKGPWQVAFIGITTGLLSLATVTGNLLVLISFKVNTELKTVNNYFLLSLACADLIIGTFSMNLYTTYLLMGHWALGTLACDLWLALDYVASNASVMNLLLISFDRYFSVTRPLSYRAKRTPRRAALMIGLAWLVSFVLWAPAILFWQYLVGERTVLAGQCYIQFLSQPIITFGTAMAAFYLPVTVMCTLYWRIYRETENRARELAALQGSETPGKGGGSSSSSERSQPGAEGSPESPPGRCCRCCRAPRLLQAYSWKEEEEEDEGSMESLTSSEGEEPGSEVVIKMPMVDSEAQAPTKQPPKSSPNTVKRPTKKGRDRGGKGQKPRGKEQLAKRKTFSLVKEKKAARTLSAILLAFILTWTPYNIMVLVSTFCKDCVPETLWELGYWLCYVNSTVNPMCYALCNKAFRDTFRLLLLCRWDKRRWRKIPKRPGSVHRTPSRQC
Procedure: (§1) page 2: Procedures for Biological Experiments Calcium mobilization assays: To measure the functional activity of positive allosteric modulator (PAM) compounds in a cellular assay, human or rat muscarinic receptor subtype 1 (M1) was stably expressed in the Chinese hamster ovary (CHO) cells to evoke an increase in intracellular calcium to an EC20 concentration of acetylcholine (ACh) agonist. The stable M1-CHO cells were cultured in F12 medium containing 10% fetal bovine serum, 20 mM HEPES, 100 units/mL antibiotics/antimycotic, 0.5 mg/ml G418. All reagents used were from Life Technologies (Carlsbad, CA) unless otherwise noted. Briefly, the day before the assay, stable M1-CHO cells (15,000 cells/20 μL/well) were plated in black-walled, clear-bottomed, 384 well plates (Greiner Bio-One, Monroe, NC) in the culture medium without G418, and then incubated overnight at 37 °C in the presence of 5% CO2. The next day, calcium assay buffer (Hank’s balanced salt solution (HBSS), 20 mM HEPES, 2.5 mM Probenecid, 4.16 mM sodium bicarbonate (Sigma-Aldrich, St. Louis, MO) was prepared to dilute […] calcium indicator dye. […] curves in DMSO using the Bravo Liquid Handler (Agilent, Santa Clara, CA), transferred to a 384 well daughter plates using an Echo acoustic liquid handler (Beckman Coulter, Indianapolis, Indiana), and diluted in assay Buffer to a 2X final concentration. The agonist plates were prepared using acetylcholine (ACh, Sigma-Aldrich, St. Louis, MO) concentrations for the EC20 and ECMAX responses by diluting in assay buffer to a 5X final concentration. The 2X dye solution (2.3 µM) was prepared by mixing a 2.3 mM Fluo-4-AM stock in DMSO with 10% (w/v) pluronic acid F- 127 in a 1:1 ratio in assay buffer. Using a microplate washer (BioTek, Winooski, VT), cells were washed with assay buffer for 3 times to remove medium. After the final wash, 20 μL of assay buffer remained in the cell plates. Immediately, 20 μL of the 2X dye solution (final 1.15 µM) was added to each well of the cell plate using a Multidrop Combi dispenser (Thermo Fisher, Waltham, MA). After cells were incubated with the dye solutions for 45 min at 37 °C in the presence of 5% CO2, the dye solutions were removed and replaced with assay buffer using a microplate washer, leaving 20 μL of assay buffer in the cell plate. The compound, agonist, and cell plates were placed inside the Functional Drug Screening System uCell (FDSS uCell, Hamamatsu, Japan) to measure the calcium flux. The triple add protocol was used to measure Ca kinetics; Compound, ACh for EC20, and ACh for ECMAX adds in an order. Briefly, after establishment of a fluorescence baseline S2 page 3: for 2 seconds (excitation, 480 nm; emission, 530 nm), first add occurred by adding 20 µL of test compound to the cells, and the response was measured for 140 seconds. This is followed by second add; 10 µL (5X) of an EC20 concentration of ACh agonist was added to the cells, and the response of the cells was measured for 125 seconds. Immediately, the third add occurred by adding 12 ul assay buffer or 5X of an EC max concentration of ACh and the response of the cells was measured for 90 seconds. Assay buffer was added to the wells that incubated with compounds followed by EC20 concentration of ACh. Agonists containing ECmax concentration of ACh were added to the wells that incubated with DMSO and assay buffer from the 1st and 2nd adds to measure maximum Ca responses (ECmax). Calcium fluorescence was recorded as fold over basal fluorescence and raw data were normalized to the maximal response to ACh agonist. […]

[2] = molecular target: T2, human muscarinic receptor subtype 1 (M1) (Homo sapiens, UniProt P11229); test: Calcium mobilization assay in hM1-CHO cells, PAM activity with EC20 acetylcholine; type: cell-based; conditions: for EC50: read-out: hM1 pEC50 ± SEM (converted)
T2 sequence (P11229 1-460): T1 sequence (P08482 1-460) with V5A, S254T, S309P, K320R, G337A, V413I
Procedure: as §1

rM1 %ACh Max ± SEM [1] | EC50 [1] | hM1 %ACh Max ± SEM [2] | EC50 [2] | rM1 pEC50 ± SEM [1] | hM1 pEC50 ± SEM [2] | SMILES
75 ± 7.6 %ACh Max | 0.562 µM | 71 ± 4.1 %ACh Max | 1.2 µM |  |  | Cn1cc(-c2ccc(Cc3cc(C(=O)N[C@H]4CCOC[C@@H]4O)nn3C3CCOC3)cc2)cn1 (stereo partly shown) [17j]
80 ± 7.1 %ACh Max | 1.48 µM | 73 ± 3.1 %ACh Max | 4.9 µM |  |  | Cn1cc(-c2ccc(Cc3cc(C(=O)N[C@H]4CCOC[C@@H]4O)nn3C3CCCCC3)cc2)cn1 [17h]
80 ± 3.2 %ACh Max | 3.47 µM | 72 ± 2.6 %ACh Max | 4.57 µM |  |  | Cn1cc(-c2ccc(Cc3cc(C(=O)N[C@H]4CCCCC[C@@H]4O)nn3-c3ccccc3)cc2)cn1 [17e]
57 ± 4.6 %ACh Max | > 10 µM |  | > 10 µM |  |  | Cn1cc(-c2ccc(Cc3cc(C(=O)N[C@H]4CCOC[C@@H]4O)nn3Cc3ccccc3)cc2)cn1 [17f]
69 ± 4.3 %ACh Max | > 10 µM | 58 ± 3.0 %ACh Max | > 10 µM |  |  | Cn1cc(-c2ccc(Cc3cc(C(=O)N[C@H]4CCC[C@@H]4O)nn3-c3ccccc3)cc2)cn1 [17c]
84 ± 4.6 %ACh Max | 1.2 µM | 74 ± 0.6 %ACh Max | 2 µM |  |  | Cn1cc(-c2ccc(Cc3cc(C(=O)N[C@H]4CCOC[C@@H]4O)nn3-c3ccccc3)cc2)cn1 [17b]
76 ± 4.2 %ACh Max | 1.91 µM | 78 ± 8.8 %ACh Max | 2.95 µM |  |  | Cn1cc(-c2ccc(Cc3cc(C(=O)NC4CC5(COC5)C4)nn3C3CCCC3)cc2)cn1 [17p]
51 ± 3.9 %ACh Max | > 10 µM | 48 ± 7.4 %ACh Max | > 10 µM |  |  | Cn1cc(-c2ccc(Cc3cc(C(=O)N[C@H]4CC[C@@H]4O)nn3-c3ccccc3)cc2)cn1 [17d]
50 ± 3.7 %ACh Max | > 10 µM | 46 ± 1.1 %ACh Max | > 10 µM |  |  | Cn1cc(-c2ccc(Cc3cc(C(=O)NC4CC(F)C4)nn3C3CCCC3)cc2)cn1 (stereo not shown) [17o]
81 ± 3.8 %ACh Max | 0.724 µM | 79 ± 4.4 %ACh Max | 0.661 µM |  |  | Cn1cc(-c2ccc(Cc3cc(C(=O)N[C@H]4CCCCC[C@@H]4O)nn3C3CCCC3)cc2)cn1 [17l]
 | 0.794 µM |  | 1.26 µM |  |  | CNC(=O)c1ccc(Cc2cc(C(=O)N[C@H]3CCOC[C@@H]3O)nn2C2CCCC2)cc1 [compound 21]
73 ± 5.3 %ACh Max | 1.58 µM | 76 ± 10 %ACh Max | 2.14 µM |  |  | Cn1cc(-c2ccc(Cc3cc(C(=O)N[C@H]4CCC[C@@H]4O)nn3C3CCCC3)cc2)cn1 [17m]
72 ± 3.8 %ACh Max | 4.17 µM | 67 ± 2.5 %ACh Max | 6.61 µM |  |  | Cn1cc(-c2ccc(Cc3cc(C(=O)N[C@@H]4CCOC[C@H]4F)nn3C3CCCC3)cc2)cn1 [17n]
 |  |  |  | Inactive (n = 3) Inactive (n = 3) | Inactive (n = 3) Inactive (n = 3) | CC(C)n1nc(C(=O)N[C@H]2CCOC[C@@H]2O)cc1Cc1ccc(-c2cnn(C)c2)cc1 [17i]
80 ± 3.8 %ACh Max | 2.51 µM | 70 ± 1.5 %ACh Max | 3.02 µM |  |  | Cn1cc(-c2ccc(Cc3cc(C(=O)N[C@H]4CCCC[C@@H]4O)nn3-c3ccccc3)cc2)cn1 [17a]
